Each structure is given as a SMILES string.

The test addresses T1, rat NaP2b (SLC34A2) (Rattus norvegicus, UniProt Q9JJ09).
T1 construct: host or cells: HEK293
T1 sequence (Q9JJ09 1-695): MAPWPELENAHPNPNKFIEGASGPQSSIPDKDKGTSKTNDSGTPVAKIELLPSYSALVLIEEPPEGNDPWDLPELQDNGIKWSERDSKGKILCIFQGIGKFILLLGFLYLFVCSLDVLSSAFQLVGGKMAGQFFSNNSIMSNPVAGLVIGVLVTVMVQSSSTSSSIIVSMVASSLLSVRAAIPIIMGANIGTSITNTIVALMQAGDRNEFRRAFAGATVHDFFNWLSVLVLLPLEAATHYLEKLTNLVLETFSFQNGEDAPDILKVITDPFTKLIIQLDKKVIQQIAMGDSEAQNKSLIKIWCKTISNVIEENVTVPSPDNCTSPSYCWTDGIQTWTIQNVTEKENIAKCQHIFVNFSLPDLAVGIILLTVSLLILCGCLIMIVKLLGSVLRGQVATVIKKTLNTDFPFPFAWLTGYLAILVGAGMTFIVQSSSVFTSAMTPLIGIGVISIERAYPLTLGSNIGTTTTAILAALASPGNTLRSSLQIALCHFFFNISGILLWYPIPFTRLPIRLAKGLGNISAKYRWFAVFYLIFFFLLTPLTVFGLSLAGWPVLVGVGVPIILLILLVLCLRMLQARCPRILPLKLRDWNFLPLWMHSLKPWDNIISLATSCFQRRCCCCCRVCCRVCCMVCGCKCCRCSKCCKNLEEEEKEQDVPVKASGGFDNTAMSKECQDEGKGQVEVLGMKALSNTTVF
As to the kind of experiment: Inhibition of NaP2b-mediated Pi (33P) uptake in transfected HEK293 cells, rat NaP2b. The format is cell-based. Conditions: 33P Pi uptake, 0.1 mM phosphate, value given as pIC50 range. Here is the method: HEK293 cells were obtained from the American Type Culture collection and propagated per their instructions. […] The sequence of the human protein was mutated to insert a threonine after residue 37, and to introduce a N39D mutation.
Cells were seeded into 96-well plates at 25,000 cells/well and cultured overnight. Lipofectamine 2000 (Invitrogen) was used to introduce the NaP2b cDNA, and the cells were allowed to approach confluence during a second overnight incubation. […] Each compound was tested at twelve concentrations ranging from 0.1 nM to 30 uM. Assays were run in duplicate.
Cells were lysed by addition of 20 μL 0.1% Tween 80 followed by 100 μL scintillation fluid, and counted using a TopCount (Perkin Elmer).
pIC50 (the negative log of the IC50) values of the test compounds were calculated using GraphPad Prism.
`CN(Cc1cccc(C(F)(F)F)c1)C(=O)c1ccnc(-c2cc(N3CCCCC3)ccc2NC(=O)c2cccc(CSCCC(=O)O)c2)c1` [Example 1.37] gave a half-maximal inhibitory concentration (IC50) of 1 to 7.94 µM.
Compound `Cc1cccc(CN(C)C(=O)c2ccnc(-c3cc(N4CCCCC4)ccc3NC(=O)c3cccc(CSCCC(=O)O)c3)c2)c1` [Example 1.38] showed an IC50 of 10 to 31.6 µM.
As for `O=C(O)CCSCc1cccc(C(=O)Nc2ccc(N3CCCCC3)cc2-c2cc(C(=O)NCc3ccc(OCc4ccccc4)cc3)ccn2)c1` [Example 1.39], the IC50 is 1 to 7.94 µM.
With `O=C(O)CCSCc1cccc(C(=O)Nc2ccc(N3CCCCC3)cc2-c2cc(C(=O)NCc3ccc(Oc4ccccc4)cc3)ccn2)c1` [Example 1.40], the IC50 was 1 to 7.94 µM.
In the case of `O=C(O)CCSCc1cccc(C(=O)Nc2ccc(N3CCCCC3)cc2-c2cc(C(=O)NCc3cccc(-c4ccccc4)c3)ccn2)c1` [Example 1.42], the IC50 was 1 to 7.94 µM.
In turn, `O=C(O)CCSCc1cccc(C(=O)Nc2ccc(N3CCCCC3)cc2-c2cc(C(=O)NCc3ccccc3OC(F)(F)F)ccn2)c1` [Example 1.43] gave an IC50 of 1 to 7.94 µM.
Compound `O=C(O)CCSCc1cccc(C(=O)Nc2ccc(N3CCCCC3)cc2-c2cc(C(=O)NCc3ccc(OC(F)(F)F)cc3)ccn2)c1` [Example 1.44] showed an IC50 of 1 to 7.94 µM.
For the compound `O=C(O)CCSCc1cccc(C(=O)Nc2ccc(N3CCCCC3)cc2-c2cc(C(=O)NCc3cccc(OC(F)(F)F)c3)ccn2)c1` [Example 1.45], the IC50 is 1 to 7.94 µM.
In the case of `Cc1cccc(CNC(=O)c2ccnc(-c3cc(N4CCCCC4)ccc3NC(=O)c3cccc(CSCCC(=O)O)c3)c2)c1` [Example 1.46] it was 1 to 7.94 µM; in that of `O=C(O)CCSCc1cccc(C(=O)Nc2ccc(N3CCCCC3)cc2-c2cc(C(=O)NCc3ccc(C(F)(F)F)cc3)ccn2)c1` [Example 1.47], 1 to 7.94 µM; in that of `O=C(O)CCSCc1cccc(C(=O)Nc2ccc(N3CCCCC3)cc2-c2cc(C(=O)NCc3ccccc3C(F)(F)F)ccn2)c1` [Example 1.48], 1 to 7.94 µM.
Consider `Cc1ccc(CNC(=O)c2ccnc(-c3cc(N4CCCCC4)ccc3NC(=O)c3cccc(CSCCC(=O)O)c3)c2)cc1C` [Example 1.49], for which the IC50 was 1 to 7.94 µM.
`Cc1cccc(CNc2cc(-c3cc(N4CCCCC4)ccc3NC(=O)c3cccc(CSCCC(=O)O)c3)ncn2)c1` [Example 3.2, 3-((3-((4-(Piperidin-1-yl)-2-(6-((3-methylbenzyl)amino)pyrimidin-4-yl)phenyl)carbamoyl)benzyl)thio)propanoic acid]: the IC50 is 10 to 31.6 µM.
In the case of `O=C(O)CCSCc1cccc(C(=O)Nc2ccc(N3CCCCC3)cc2-c2cc(NCCc3cccc(C(F)(F)F)c3)ncn2)c1` [Example 3.3, 3-((3-((4-(Piperidin-1-yl)-2-(6-((3-(trifluoromethyl)phenethyl)amino)pyrimidin-4-yl)phenyl)carbamoyl)benzyl)thio)propanoic acid] it was 10 to 31.6 µM; in that of `Cc1ccc(CNc2cc(-c3cc(N4CCCCC4)ccc3NC(=O)c3cccc(CSCCC(=O)O)c3)ncn2)cc1C` [Example 3.4, 3-((3-((2-(6-((3,4-Dimethylbenzyl)amino)pyrimidin-4-yl)-4-(piperidin-1-yl)phenyl)carbamoyl)benzyl)thio)propanoic acid], 10 to 31.6 µM.
Compound `O=C(O)CCSCc1cccc(C(=O)Nc2ccc(N3CCCCC3)cc2-c2cc(NCc3ccc(Cl)c(C(F)(F)F)c3)ncn2)c1` [Example 3.5, 3-((3-((2-(6-((4-Chloro-3-(trifluoromethyl)benzyl)amino)pyrimidin-4-yl)-4-(piperidin-1-yl)phenyl)carbamoyl)benzyl)thio)propanoic acid] showed an IC50 of 1 to 7.94 µM.
On to `O=C(O)CCSCc1cccc(C(=O)Nc2ccc(N3CCCCC3)cc2-c2cc(OCc3cccc(C(F)(F)F)c3)ncn2)c1` [Example 3.8, 3-((3-((4-(Piperidin-1-yl)-2-(6-((3-(trifluoromethyl)benzyl)oxy)pyrimidin-4-yl)phenyl)carbamoyl)benzyl)thio)propanoic acid], for which the IC50 is 10 to 31.6 µM.
In the case of `O=C(O)CCSCc1cccc(C(=O)Nc2ccc(N3CCCCC3)cc2-c2cc(Oc3cccc(C(F)(F)F)c3)ncn2)c1` [Example 3.9, 3-((3-((4-(Piperidin-1-yl)-2-(6-(3-(trifluoromethyl)phenoxy)pyrimidin-4-yl)phenyl)carbamoyl)benzyl)thio)propanoic acid], the IC50 was 10 to 31.6 µM.
With `CCN(CC)CCN(C)C(=O)c1cccc(C(=O)Nc2ccc(N3CCCCC3)cc2-c2cc(C(=O)NCc3cccc(C(F)(F)F)c3)ccn2)c1` [Example 4.1, N1-(2-(Diethylamino)ethyl)-N1-methyl-N3-(4-(piperidin-1-yl)-2-(4-((3-(trifluoromethyl)benzyl)carbamoyl)pyridin-2-yl)phenyl)isophthalamide], the IC50 was 10 to 31.6 µM.
`COCCNC(=O)CCN(C)C(=O)c1cccc(C(=O)Nc2ccc(N3CCCCC3)cc2-c2cc(C(=O)NCc3cccc(C(F)(F)F)c3)ccn2)c1` [Example 4.2, N1-(2-(4-((3-(Trifluoromethyl)benzyl)carbamoyl)pyridin-2-yl)-4-(piperidin-1-yl)phenyl)-N3-(3-(2-methoxyethylamino)-3-oxopropyl)-N3-methylisophthalamide] showed an IC50 of 1 to 7.94 µM.
In the case of `CN(CCOCCO)C(=O)c1cccc(C(=O)Nc2ccc(N3CCCCC3)cc2-c2cc(C(=O)NCc3cccc(C(F)(F)F)c3)ccn2)c1` [Example 4.3, N1-(2-(2-Hydroxyethoxy)ethyl)-N1-methyl-N3-(4-(piperidin-1-yl)-2-(4-((3-(trifluoromethyl)benzyl)carbamoyl)pyridin-2-yl)phenyl)isophthalamide] it was 1 to 7.94 µM; in that of `CN(CCN1CCN(C(=O)OC(C)(C)C)CC1)C(=O)c1cccc(C(=O)Nc2ccc(N3CCCCC3)cc2-c2cc(C(=O)NCc3cccc(C(F)(F)F)c3)ccn2)c1` [Example 4.5, Tert-butyl 4-(2-(N-methyl-3-((4-(piperidin-1-yl)-2-(4-((3-(trifluoromethyl)benzyl)carbamoyl)pyridin-2-yl)phenyl)carbamoyl)benzamido)ethyl)piperazine-1-carboxylate], 1 to 7.94 µM.
For the compound `CC(=O)N1CCN(C(=O)c2cccc(C(=O)Nc3ccc(N4CCCCC4)cc3-c3cc(C(=O)NCc4cccc(C(F)(F)F)c4)ccn3)c2)CC1` [Example 4.6, 2-(2-(3-(4-Acetylpiperazine-1-carbonyl)benzamido)-5-(piperidin-1-yl)phenyl)-N-(3-(trifluoromethyl)benzyl)isonicotinamide], the IC50 is 10 to 31.6 µM.
As to `CC(=O)NC1CCN(C(=O)c2cccc(C(=O)Nc3ccc(N4CCCCC4)cc3-c3cc(C(=O)NCc4cccc(C(F)(F)F)c4)ccn3)c2)CC1` [Example 4.7, 2-(2-(3-(4-Acetamidopiperidine-1-carbonyl)benzamido)-5-(piperidin-1-yl)phenyl)-N-(3-(trifluoromethyl)benzyl)isonicotinamide], the IC50 is 10 to 31.6 µM.
For the compound `CCN(CCN1CCOCC1)C(=O)c1cccc(C(=O)Nc2ccc(N3CCCCC3)cc2-c2cc(C(=O)NCc3cccc(C(F)(F)F)c3)ccn2)c1` [Example 4.8, N1-Ethyl-N1-(2-morpholinoethyl)-N3-(4-(piperidin-1-yl)-2-(4-((3-(trifluoromethyl)benzyl)carbamoyl)pyridin-2-yl)phenyl)isophthalamide], the IC50 was 1 to 7.94 µM.
In turn, `CC(=O)N[C@H]1CCN(C(=O)c2cccc(C(=O)Nc3ccc(N4CCCCC4)cc3-c3cc(C(=O)NCc4cccc(C(F)(F)F)c4)ccn3)c2)C1` [Example 4.9, (S)-2-(2-(3-(3-Acetamidopyrrolidine-1-carbonyl)benzamido)-5-(piperidin-1-yl)phenyl)-N-(3-(trifluoromethyl)benzyl)isonicotinamide] showed an IC50 of 10 to 31.6 µM.
As to `O=C(NCc1cccc(C(F)(F)F)c1)c1ccnc(-c2cc(N3CCCCC3)ccc2NC(=O)c2cccc(C(=O)N(CCN3CCOCC3)C3CC3)c2)c1` [Example 4.11, N1-Cyclopropyl-N1-(2-morpholinoethyl)-N3-(4-(piperidin-1-yl)-2-(4-((3-(trifluoromethyl)benzyl)carbamoyl)pyridin-2-yl)phenyl)isophthalamide], the IC50 is 1 to 7.94 µM.
For the compound `O=C(NCc1cccc(C(F)(F)F)c1)c1ccnc(-c2cc(N3CCCCC3)ccc2NC(=O)c2cccc(C(=O)N(CCN3CCOCC3)Cc3ccccc3)c2)c1` [Example 4.12, N1-Benzyl-N1-(2-morpholinoethyl)-N3-(4-(piperidin-1-yl)-2-(4-((3-(trifluoromethyl)benzyl)carbamoyl)pyridin-2-yl)phenyl)isophthalamide], the IC50 was 1 to 7.94 µM.

Broadly, the IC50 is the concentration that inhibits the measured activity by half. Read a low IC50 as greater potency in that assay.
